Experimental data from patent US9375402B2, “Oral formulations of kinase inhibitors” (VERASTEM, INC., priority 2010, dated 2016).

Experiment: Solubility of SR2516 and SR3406 in selected oils
Assay type: physicochemical
Settings: shaken overnight at 25 deg C, filtrate, HPLC
Description: This purpose of this study was to select an oil system as the vehicle base for the self-emosifying formulation based on the solubility
Procedure • 1. Add 25 mg of each API in 2 mL eppendoff vial. Record weight. • 2. Weigh out each excipient. Record weight. • 3. Beadbeater 100 sec to mix well. If all dissolved, add additional 5-10 mg each time until excess solid is present. • 4. Use a platform shaker to shake all vials overnight at 25 deg C. • 5. Observe for clarity, presence and relative amount of precipitates. • 6. Filter using spin-X (0.22 um). • 7. Dilute the filtrate to normal concentration for HPLC analysis for drug concentration and purity %. • 8. Keep the filtrate at room temperature and observe for ppt at longer time point(s) if needed. Results Analysis on Filtrate Samples

Solubility (in Capmul MCM (F2))	Solubility (in Castor oil (F4))	Solubility (in Labrafil M 1944 CS (F3))	Solubility (in Miglyol 812 (F1))	Solubility (in Oleic acid (F5))	SMILES
13.6 mg/g	4.9 mg/g	1.0 mg/g	0.3 mg/g	0.4 mg/g	CNC(=O)c1cc(F)ccc1Nc1cc(Nc2ccc(N3CCOCC3)cc2OC)ncc1C(F)(F)F [SR-3406]
8.4 mg/g	1.5 mg/g	2.2 mg/g	0.3 mg/g	5.8 mg/g	CNC(=O)c1ccccc1Nc1cc(Nc2ccc(N3CCOCC3)cc2OC)ncc1C(F)(F)F [SR-2516]
